Measurements published in US7196110B2, “N-substituted tricyclic 3-aminopyrazoles as inhibitors for the treatment of cell proliferative disorders” (Janssen Phamaceutica N.V., priority 2002, dated 2007).

Tests used:
H460 = experiment: Flow cytometry and trypan blue exclusion cell counting, H460; format: cell-based, human
LoVo = experiment: Flow cytometry and trypan blue exclusion cell counting, LoVo; format: cell-based, human
[1] = test system: PDGF-BB-stimulated angiogenesis; experiment: Anti-angiogenesis matrigel mouse model (MM assay) supplemented with PDGF-BB, plug hemoglobin content; format: in vivo, mice (C57BL/6J); conditions: mice
Text: Angiogenesis inhibitory activity of a compound of this invention can be measured in vivo using the matrigel mouse model (MM Assay) of angiogenesis (Passaniti et al., Laboratory Investigation, 67: 519–528, 1992). The matrigel mouse assay is a well-established method to quantify angiogenesis (see e g. Capogrossi et al., Methods in Molecular Medicine, Vascular Disease: Molecular Biology and Gene Therapy Protocols, Edited by: A. H. Baker, Humana Press Inc., Totowa, N.J., 1999). The model has been characterized extensively for its relevance as a mimic of the process of angiogenesis and has been used extensively to evaluate in vivo both potential angiogenic and anti-angiogenic activity of numerous compounds/agents. […] All procedures involving animals were conducted in an animal facility fully accredited by the American Association for Assessment and Accreditation of Laboratory Animal Care (AAALAC) and in accordance with The Guide for the Care and Use of Laboratory Animals (NIH). […]
Normal male mice (C57BL/6J) were injected subcutaneously (ventrally below rib cage at abdominal midline) with 1.0 mL of chilled matrigel supplemented with a single purified pro-angiogenic growth factor (100–500 ng/mL of either rhPDGF-BB (supra), recombinant human basic fibroblast growth factor, rhFGF-basic (R&D System Cat. No 233-FB) or recombinant human vascular endothelial growth factor, rhVEGF (PanVera Cat. No R2951) and heparin (35 U/mL). Compounds are formulated as 0.1% suspensions (1 mg/mL final concentration) in 0.5% methylcellulose. Vehicle or test compounds (8–10 mice per treatment group) were administered orally by gavage beginning two hours after matrigel injections. […] Supernatants were removed and the hemoglobin concentration in the plug extract was measured spectrophotometrically using the Drabkin's assay method (Drabkin's reagent kit 525-A; SIGMA) and read on a Beckman DU 7400 Spectrophotometer. […] Group differences were analyzed statistically using the Mann-Whitney Test, with a p-value of 0.05 or less considered statistically significant. […]

DU145 (prostate cancer) = experiment: Clonogenicity assay, compound in combination with irradiation, DU145; format: cell-based, human
Protocol: Radiotherapy is a major therapeutic modality in treating many types of cancers including human prostate and ovarian cancers. The anti-proliferative activity of compounds within the scope of the invention was tested in combination with irradiation treatment.
Cells DU145 (prostate cancer) and MDAH2774 (ovarian cancer) were obtained from ATCC; growth media MEM medium (Mediatech, Herndon, Va.) was supplemented with 8% FBS, 5 U/ml penicillin and 50 μg/ml Streptomycin (Hyclone, Logan, Utah), 2 mM L-glutamine (Hyclone, Logan, Utah), 25 mM HEPES (Hyclone, Logan, Utah); McCoy's 5A medium (Mediatech, Herndon, Va.) was supplemented with 8% FBS, 50 U/ml penicillin and 50 μg/ml-Strep (Hyclone, Logan, Utah) and Glutamine 2 mM L-glutamine (Hyclone, Logan, Utah), ^137CS γ-source was a Gammacell 1000 Elite irradiator (MDS Nordion, Kanata, Ontario, Canada); DMSO; 1× PBS; Methanol; 0.25% Crystal Violet, and 60 mm tissue culture dishes.
DU145 or MDAH2774 cells at desired cell number were plated in early log phase on 60 mm dishes in MEM medium supplemented with 8% FBS, Penicillin, Streptomycin, L-glutamine, or McCoys medium supplemented with 8% FBS, Penicillin, Streptomycin and Glutamine, respectively. Cells were plated in triplicate. […] The final concentrations of the compound in the cell media ranged from 1 to 100 nM. After 24 h incubation with the test compound plates were split in two groups of equal size. The plates in the first group were irradiated with 7.3 Gy (plates containing DU145 cells) or 5.4 Gy (plates containing MDAH2774 cells) using a ^137Cs γ-source (dose rate 3.32 Gy/min). The second group of plates were treated identically but not irradiated. Cells were incubated for an additional 24 hours in medium containing test compound. Then, the cells were replenished with fresh compound-free identical medium and allowed to grow for an additional 11 days. Cells were then fixed with methanol, stained with 0.25% crystal violet, and the clones containing more than 50 cells were counted.
The activity appeared to be concentration-dependent with more dramatic effects achieved at 100 nM compound with radiation in either cell line.

[2] = Rat pharmacokinetics study of pro-drugs, conversion to parent monitored by HPLC/MS/MS; format: in vivo; conditions: po, rat plasma, 10 mg/kg orally, read-out: Fast PK (0.5 h) conc. Prodrug
Protocol: Furthermore, pro-drugs have been administered orally to rats (10 mg/kg) in pharmacokinetics studies, and the conversion of pro-drugs to the parent compound was montitored by HPLC/MS/MS analyses. Parent compound or the glucuronide conjugates of the parent compound was detected in the rat plasma from the pharmacokinetics studies (Table G).

COc1cc2c(cc1OC)-c1n[nH]c(Nc3cccc(F)c3)c1C2 [Compound 14, (3-Fluoro-phenyl)-(6,7-dimethoxy-2,4-dihydro-indeno[1,2-c]pyrazol-3-yl)-amine]
cell cycle / growth effect in H460 cells (H460): blocked growth | cell cycle / growth effect in LoVo cells (LoVo): blocked growth | % Inhibition @ 30 mg/kg po (angiogenesis, MM assay supplemented with PDGF-BB) [1]: 40% | colony formation inhibition with versus without radiation, DU145 (DU145 (prostate cancer); 7.3 Gy, compound 1 to 100 nM): the inhibitory effect was greater with radiation | No. of DU145 Clones (average of three plates) (DU145 (prostate cancer); W/o Radiation, 200 cells initially plated, compound 1 nM): 118 | No. of DU145 Clones (average of three plates) (DU145 (prostate cancer); W/o Radiation, 200 cells initially plated, compound 3 nM): 108 | No. of DU145 Clones (average of three plates) (DU145 (prostate cancer); W/o Radiation, 200 cells initially plated, compound 10 nM): 111 | No. of DU145 Clones (average of three plates) (DU145 (prostate cancer); W/o Radiation, 200 cells initially plated, compound 30 nM): 100 | No. of DU145 Clones (average of three plates) (DU145 (prostate cancer); W/o Radiation, 200 cells initially plated, compound 100 nM): 22 | concentration from which marked inhibitory activity against colony formation was shown, DU145 (DU145 (prostate cancer); in the presence or absence of radiation (7.3 Gy)): ≥ 30 nM | No. of DU145 Clones (average of three plates) (DU145 (prostate cancer); w/Radiation (7.3 Gy), 1200 cells initially plated, compound 1 nM): 117 | No. of DU145 Clones (average of three plates) (DU145 (prostate cancer); w/Radiation (7.3 Gy), 1200 cells initially plated, compound 3 nM): 100 | No. of DU145 Clones (average of three plates) (DU145 (prostate cancer); w/Radiation (7.3 Gy), 1200 cells initially plated, compound 10 nM): 126 | No. of DU145 Clones (average of three plates) (DU145 (prostate cancer); w/Radiation (7.3 Gy), 1200 cells initially plated, compound 30 nM): 57 | No. of DU145 Clones (average of three plates) (DU145 (prostate cancer); w/Radiation (7.3 Gy), 1200 cells initially plated, compound 100 nM): 5

COc1cc2c(cc1OC)-c1n[nH]c(Nc3ccccc3F)c1C2 [Compound 12, (6,7-Dimethoxy-2,4-dihydro-indeno[1,2-c]pyrazol-3-yl)-(2-fluoro-phenyl)-amine]
% Inhibition @ 30 mg/kg po (angiogenesis, MM assay supplemented with PDGF-BB) [1]: 45%

COc1cc2c(cc1OC)-c1c(c(Nc3cccc(F)c3)nn1C(=O)CO)C2 [Compound 432, 1-[3-(3-Fluoro-phenylamino)-6,7-dimethoxy-4H-indeno[1,2-c]pyrazol-1-yl]-2-hydroxy-ethanone]
concentration at 0.5 h [2]: 80 nM
